For assay [1], the system named is Conyza canadiensis (ERICA). Briefly: Greenhouse post-emergence weed control, percent injury vs untreated control. Format: in vivo. Particulars: 504 h. On the procedure: (§1) Glufosinate was used as a commercial SL formulation containing 280 g ai/l of glufosinate (Liberty 280 SL, BASF). While the PPO herbicide Cadet containing 109 g ai/l fluthiacet-methyl was used (Cadet, FMC) formulation. • The evaluation for plant injury or damage caused by the chemical compositions was carried out using a scale from 0-100% when compared with the untreated control plants. Here, 0 means no damage and 100 means complete destruction of the plants.
(§2) 22., E=X+Y−(X*Y/100), where • X=effect in percent using herbicide A at an application rate of a; • Y=effect in percent using herbicide B at an application rate of b; • E=expected effect (in %) of A+B at application rates a+b.
(§3) The value E corresponds to the effect (plant damage or injury) which is to be expected if the activity of the individual compounds is just additive. If the observed effect is higher than the value E calculated according to Colby, a synergistic effect is present.
(§4) Seedlings of marestail (Conyza canadiensis; ERICA) and barnyardgrass (Echinochloa crusgalli; ECHCG) were treated with postemergence applications of either glufosinate at 246 g ai/ha, fluthiacet-methyl at 0.72 g ai/ha, or the combination of glufosinate (246 g ai/ha) and fluthiacet-methyl (0.72 g ai/ha), respectively, when they were 5-10 cm in height. All glufosinate treatments contained 1% (w/v) ammonium sulfate and solo fluthiacet-methyl treatments contained 1% (w/v) ammonium sulfate plus 1% (v/v) MSO surfactant. Plants were placed in a completely randomized design with four replications per treatment. Percent injury data was collected 21 days after treatment (DAT).

The subject of assay [2] is Echinochloa crus-galli (ECHCG). The description is as above. The class given is in vivo. The following applies: 504 h. As for the experimental part:
as §1, §2, §3, §4

Where [3] appears, read: read-out: % activity, Solo Glufosinate (246 g ai/ha).

As to `CP(=O)(O)CCC(N)C(=O)O` (racemic) [Glufosinate, (2RS)-2-amino-4-[hydroxy(methyl)phosphinoyl]butyric acid], the inhibition at 246 g/ha in assay [1] (setting [3]) is 58%; in assay [2] (setting [3]), 53%.

With `COC(=O)CSc1cc(/N=c2\sc(=O)n3n2CCCC3)c(F)cc1Cl` [Fluthiacet-methyl, fluthiacet-methyl], the inhibition at 0.72 g/ha in assay [1] (ERICA seedlings 5-10 cm, postemergence, 0.72 g ai/ha, 21 DAT, 1% ammonium sulfate plus 1% MSO, scale 0-100%, read-out: % activity, Solo Fluthiacet-methyl (0.72 g ai/ha)) was found to be 23%; in assay [2] (ECHCG seedlings 5-10 cm, postemergence, 0.72 g ai/ha, 21 DAT, 1% ammonium sulfate plus 1% MSO, scale 0-100%, read-out: % activity, Solo Fluthiacet-methyl (0.72 g ai/ha)) it was 20%.

Values taken from patent US20230089506A1, “Herbicide Combinations Comprising Glufosinate and Fluthiacet-Methyl” (BASF SE, priority 2020, published 2023).
